Earlier results on one compound are cited in paper PMC8604667 (International Journal of Pharmaceutics: X, 2021).

Each structure is given as a SMILES string.

Data set [1] relates to P-glycoprotein. The conditions noted are these: ref Takemoto et al., 2006; Negi et al., 2013.
For data set [2] the following is noted: ref Venditto and Simanek, 2010.

Take `CC[C@@]1(O)C(=O)OCc2c1cc1n(c2=O)Cc2cc3ccccc3nc2-1` [camptothecin, Camptothecin]: in data set [1], the P-glycoprotein substrate result is on record as “P-glycoprotein substrate”. The “pH at which lactone and carboxylate forms co-exist at 50%” value in data set [2] is listed as 6.65.
